Experimental data: patent US11911361B2, “Stable cannabinoid formulations” (priority 2014, dated 2024)

Columns and labels:
[1] = test system: paclitaxel-induced mechanical sensitivity; assay: Paclitaxel induced neuropathic pain study (Von Frey mechanical sensitivity); format: in vivo, mice
[2] = test system: oxaliplatin-induced peripheral neuropathy; assay: Oxaliplatin induced neuropathic pain study; format: in vivo; conditions: CBD 15 minutes prior to single oxaliplatin 6 mg/kg
Protocol: (§1) A study was designed to test the efficacy of CBD in preventing oxaliplatin- or vincristine-induced peripheral neuropathy. Two doses of CBD and vehicle were tested against each of these first line chemotherapeutic agents. Oxaliplatin was administered once at a dose of 6 mg/kg. CBD was administered 15 minutes prior to the single oxaliplatin injection. Vincristine was administered once daily for 7 days at a dose of 0.1 mg/kg. CBD was administered 15 minutes prior to each vincristine injection. For each treatment group the final sample size was 8 animals.

[3] = test system: vincristine-induced peripheral neuropathy; assay: Vincristine induced neuropathic pain study; format: in vivo; conditions: CBD 15 minutes prior to each vincristine 0.1 mg/kg injection
Protocol: as §1

U251 cells = assay: Orthotopic mouse model of glioblastoma multiforme, U251 cells; format: in vivo, female athymic nu/nu mice
Protocol: All mice were injected intraperitoneally.
Survival between groups was compared using a Kaplan-Meier analysis and long-rank Mantel-Cox test or The Gehan-Breslow-Wilcoxon test. P values <0.05 defined statistical significance.

[4] = Long-term safety study in pediatric patients with refractory epilepsy; conditions: human, in vivo, oral, 48 week
Source text: This was a long-term, open-label, 48-week study for pediatric subjects aged 1 year to 17 years with refractory epilepsy.
The study included 5 subjects aged 1 to <2 years (infants); 9 subjects aged 2 to <12 years (children), with ≥3 subjects under the age of 6 years; 6 subjects aged 12 to ≤17 years (adolescents), with ≥3 subjects under the age of 16 years.

clinical = conditions: human, in vivo, po, 20 mg/kg, single 20 mg/kg oral dose of cannabidiol solution, mean; for CL/F / Vd/F: cannabidiol; for half-life: t1/2, cannabidiol
Protocol: An open label, randomized, single-dose, two-period, two-way crossover food-effect study was conducted on healthy subjects. […] Twenty-four (24) subjects were enrolled in the study and each were subjected to the fasted and fed treatment arms in separate periods followed by a 7-day wash-out period. For pharmacokinetic analysis, nominal time and default lambda-z selections were used. All below quantifiable limit values were set to zero and all subjects were included in the analysis.
Data from 13 subjects from the fasted treatment and 24 subject from the fed treatment were included in the pharmacokinetic and statistical analyses.

[5] = test system: maximal electroshock-induced seizures; assay: Maximal electroshock test (MES), mice; conditions: for MES N/F (animals protected/tested): mice
[6] = test system: psychomotor seizure induced by 6 Hz stimulation; assay: Minimal clonic seizure (6 Hz) psychomotor seizure test; conditions: intraperitoneal; for 6 HZ N/F (animals protected/tested): Anticonvulsant Screening, mice; for 6 Hz N/F (animals protected/tested) / 6 Hz N/F: CF1 mice; for ED50: Mus musculus, ip; for 6 Hz N/F: Time to Peak Effect (Table 54)
[7] = Minimal motor impairment (rotorod) toxicity test (TOX), mice; conditions: in vivo

C=C(C)[C@@H]1CCC(C)=C[C@H]1c1c(O)cc(CCCCC)cc1O [cannabidiol, (−)-trans-2-p-mentha-1,8-dien-3-yl-5-pentylresorcinol]
alleviating chemotherapy-induced neuropathic pain (in words) ([1]; Example 7, IP, Day 21): most effective level of alleviating chemotherapy-induced neuropathic pain | minimal effective dose ([1]; IP): 1.25 mg/kg | effect on paclitaxel-induced mechanical sensitivity (in words) ([1]; pretreatment 15 minutes prior to each paclitaxel injection, IP): significantly attenuated | effect on oxaliplatin-induced mechanical sensitivity (in words) [2]: attenuated | effect on vincristine-induced mechanical sensitivity (in words) [3]: no main effect of treatment | effect on antitumor activity of temozolomide (in words) (U251 cells; 15 mg/kg cannabidiol with temozolomide 1.5 mg/kg): enhanced the antitumor activity of temozolomide | survival (in words) (U251 cells; vehicle outlier included): did not increase survival | subjects with somnolence related to the CBD [4]: 7.7% | subjects with weight increase related to the CBD [4]: 7.7% | CL/F (clinical; fasted): 1140 mL/min/kg | CL/F (clinical; fed): 36.2 mL/min/kg | Vd/F (clinical; fasted): 2680 L/kg | Vd/F (clinical; fed): 133 L/kg | half-life (clinical; fasted): 27.9 h | half-life (clinical; fed): 42.3 h | MES N/F (animals protected/tested) ([5]; Anticonvulsant Screening, intraperitoneal, 10 mg/kg, 0.5 h, ethanol:polyethoxylated castor oil:PBS): 0/4 | MES N/F (animals protected/tested) ([5]; Anticonvulsant Screening, intraperitoneal, 10 mg/kg, 0.5 h, methylcellulose): 0/4 | MES N/F (animals protected/tested) ([5]; Anticonvulsant Screening, intraperitoneal, 10 mg/kg, 1.0 h, ethanol:polyethoxylated castor oil:PBS): 0/4 | MES N/F (animals protected/tested) ([5]; Anticonvulsant Screening, intraperitoneal, 10 mg/kg, 1.0 h, methylcellulose): 0/4 | MES N/F (animals protected/tested) ([5]; Anticonvulsant Screening, intraperitoneal, 10 mg/kg, 2.0 h, ethanol:polyethoxylated castor oil:PBS): 0/4 | MES N/F (animals protected/tested) ([5]; Anticonvulsant Screening, intraperitoneal, 10 mg/kg, 2.0 h, methylcellulose): 0/4 | MES N/F (animals protected/tested) ([5]; Anticonvulsant Screening, intraperitoneal, 30 mg/kg, 0.5 h, ethanol:polyethoxylated castor oil:PBS): 0/4 | MES N/F (animals protected/tested) ([5]; Anticonvulsant Screening, intraperitoneal, 30 mg/kg, 0.5 h, methylcellulose): 0/4 | MES N/F (animals protected/tested) ([5]; Anticonvulsant Screening, intraperitoneal, 30 mg/kg, 1.0 h, ethanol:polyethoxylated castor oil:PBS): 1/4 | MES N/F (animals protected/tested) ([5]; Anticonvulsant Screening, intraperitoneal, 30 mg/kg, 1.0 h, methylcellulose): 0/4 | MES N/F (animals protected/tested) ([5]; Anticonvulsant Screening, intraperitoneal, 30 mg/kg, 2.0 h, ethanol:polyethoxylated castor oil:PBS): 0/4 | MES N/F (animals protected/tested) ([5]; Anticonvulsant Screening, intraperitoneal, 30 mg/kg, 2.0 h, methylcellulose): 0/4 | MES N/F (animals protected/tested) ([5]; Anticonvulsant Screening, intraperitoneal, 100 mg/kg, 0.5 h, ethanol:polyethoxylated castor oil:PBS): 0/4 | MES N/F (animals protected/tested) ([5]; Anticonvulsant Screening, intraperitoneal, 100 mg/kg, 0.5 h, methylcellulose): 0/4 | MES N/F (animals protected/tested) ([5]; Anticonvulsant Screening, intraperitoneal, 100 mg/kg, 1.0 h, ethanol:polyethoxylated castor oil:PBS): 2/4 | MES N/F (animals protected/tested) ([5]; Anticonvulsant Screening, intraperitoneal, 100 mg/kg, 1.0 h, methylcellulose): 1/4 | MES N/F (animals protected/tested) ([5]; Anticonvulsant Screening, intraperitoneal, 100 mg/kg, 2.0 h, ethanol:polyethoxylated castor oil:PBS): 1/4 | MES N/F (animals protected/tested) ([5]; Anticonvulsant Screening, intraperitoneal, 100 mg/kg, 2.0 h, methylcellulose): 2/4 | MES N/F (animals protected/tested) ([5]; ED50 Biological Response (Table 57), 200 mg/kg, 2 h, methylcellulose): 5/8 | MES N/F (animals protected/tested) ([5]; ED50 Biological Response (Table 57), 250 mg/kg, 2 h, methylcellulose): 4/8 | MES N/F (animals protected/tested) ([5]; ED50 Biological Response (Table 57), 350 mg/kg, 2 h, methylcellulose): 3/8 | MES N/F (animals protected/tested) ([5]; ED50 Biological Response (Table 57), 400 mg/kg, 2 h, methylcellulose): 3/8 | MES N/F (animals protected/tested) ([5]; ED50 Biological Response (Table 57), 450 mg/kg, 2 h, methylcellulose): 6/8 | MES N/F (animals protected/tested) ([5]; ED50 Biological Response (Table 57), 500 mg/kg, 2 h, methylcellulose): 8/8 | MES N/F (animals protected/tested) ([5]; ED50 Biological Response (Table 59), 75 mg/kg, 2 h, ethanol:polyethoxylated castor oil:PBS): 1/8 | MES N/F (animals protected/tested) ([5]; ED50 Biological Response (Table 59), 95 mg/kg, 2 h, ethanol:polyethoxylated castor oil:PBS): 5/8 | MES N/F (animals protected/tested) ([5]; ED50 Biological Response (Table 59), 120 mg/kg, 2 h, ethanol:polyethoxylated castor oil:PBS): 7/8 | MES N/F (animals protected/tested) ([5]; ED50 Biological Response (Table 59), 150 mg/kg, 2 h, ethanol:polyethoxylated castor oil:PBS): 8/8 | ED50 ([5]; Mus musculus): 92.2 mg/kg | MES N/F (animals protected/tested) ([5]; Tables 57/58, 300 mg/kg, 2 h, methylcellulose): 4/8 | MES N/F (animals protected/tested) ([5]; Time to Peak Effect (Table 58), 300 mg/kg, 0.25 h, methylcellulose): 0/4 | MES N/F (animals protected/tested) ([5]; Time to Peak Effect (Table 58), 300 mg/kg, 0.5 h, methylcellulose): 1/4 | MES N/F (animals protected/tested) ([5]; Time to Peak Effect (Table 58), 300 mg/kg, 1 h, methylcellulose): 1/4 | MES N/F (animals protected/tested) ([5]; Time to Peak Effect (Table 58), 300 mg/kg, 4 h, methylcellulose): 2/4 | ED50 ([5]; methylcellulose solvent): could not be calculated | animals protected / tested ([5]; methylcellulose solvent, 0.5 hr): ¼ | animals protected / tested ([5]; methylcellulose solvent, 1 hr): ¼ | animals protected / tested ([5]; methylcellulose solvent, 2 hr): 4/8 | animals protected / tested ([5]; methylcellulose solvent, 4 hr): 2/4 | 6 HZ N/F (animals protected/tested) ([6]; 10 mg/kg, 0.5 h, ethanol:polyethoxylated castor oil:PBS): 0/4 | 6 HZ N/F (animals protected/tested) ([6]; 10 mg/kg, 0.5 h, methylcellulose): 0/4 | 6 HZ N/F (animals protected/tested) ([6]; 10 mg/kg, 1.0 h, ethanol:polyethoxylated castor oil:PBS): 0/4 | 6 HZ N/F (animals protected/tested) ([6]; 10 mg/kg, 1.0 h, methylcellulose): 0/4 | 6 HZ N/F (animals protected/tested) ([6]; 10 mg/kg, 2.0 h, ethanol:polyethoxylated castor oil:PBS): 0/4 | 6 HZ N/F (animals protected/tested) ([6]; 10 mg/kg, 2.0 h, methylcellulose): 0/4 | 6 HZ N/F (animals protected/tested) ([6]; 30 mg/kg, 0.5 h, ethanol:polyethoxylated castor oil:PBS): 0/4 | 6 HZ N/F (animals protected/tested) ([6]; 30 mg/kg, 0.5 h, methylcellulose): 0/4 | 6 HZ N/F (animals protected/tested) ([6]; 30 mg/kg, 1.0 h, ethanol:polyethoxylated castor oil:PBS): 0/4 | 6 HZ N/F (animals protected/tested) ([6]; 30 mg/kg, 1.0 h, methylcellulose): 0/4 | 6 HZ N/F (animals protected/tested) ([6]; 30 mg/kg, 2.0 h, ethanol:polyethoxylated castor oil:PBS): 0/4 | 6 HZ N/F (animals protected/tested) ([6]; 30 mg/kg, 2.0 h, methylcellulose): 0/4 | 6 HZ N/F (animals protected/tested) ([6]; 100 mg/kg, 0.5 h, ethanol:polyethoxylated castor oil:PBS): 2/4 | 6 HZ N/F (animals protected/tested) ([6]; 100 mg/kg, 0.5 h, methylcellulose): 1/4 | 6 HZ N/F (animals protected/tested) ([6]; 100 mg/kg, 1.0 h, ethanol:polyethoxylated castor oil:PBS): 0/4 | 6 HZ N/F (animals protected/tested) ([6]; 100 mg/kg, 1.0 h, methylcellulose): 0/4 | 6 HZ N/F (animals protected/tested) ([6]; 100 mg/kg, 2.0 h, ethanol:polyethoxylated castor oil:PBS): 0/4 | 6 HZ N/F (animals protected/tested) ([6]; 100 mg/kg, 2.0 h, methylcellulose): 0/4 | 6 Hz N/F (animals protected/tested) ([6]; ED50 Biological Response (Table 53), 30 mg/kg, 0.5 h, methylcellulose): 0/8 | 6 Hz N/F (animals protected/tested) ([6]; ED50 Biological Response (Table 53), 65 mg/kg, 0.5 h, methylcellulose): 5/8 | 6 Hz N/F (animals protected/tested) ([6]; ED50 Biological Response (Table 53), 130 mg/kg, 0.5 h, methylcellulose): 5/8 | 6 Hz N/F (animals protected/tested) ([6]; ED50 Biological Response (Table 53), 160 mg/kg, 0.5 h, methylcellulose): 8/16 | 6 Hz N/F (animals protected/tested) ([6]; ED50 Biological Response (Table 53), 190 mg/kg, 0.5 h, methylcellulose): 7/8 | 6 Hz N/F (animals protected/tested) ([6]; ED50 Biological Response (Table 55), 50 mg/kg, 0.5 h, ethanol:polyethoxylated castor oil:PBS): 1/8 | 6 Hz N/F (animals protected/tested) ([6]; ED50 Biological Response (Table 55), 100 mg/kg, 0.5 h, ethanol:polyethoxylated castor oil:PBS): 1/8 | 6 Hz N/F (animals protected/tested) ([6]; ED50 Biological Response (Table 55), 130 mg/kg, 0.5 h, ethanol:polyethoxylated castor oil:PBS): 4/8 | 6 Hz N/F (animals protected/tested) ([6]; ED50 Biological Response (Table 55), 170 mg/kg, 0.5 h, ethanol:polyethoxylated castor oil:PBS): 6/8 | 6 Hz N/F (animals protected/tested) ([6]; ED50 Biological Response (Table 55), 200 mg/kg, 0.5 h, ethanol:polyethoxylated castor oil:PBS): 8/8 | ED50 ([6]; 1:1:18 ethanol:polyethoxylated castor oil:PBS solvent): 122 mg/kg | ED50 ([6]; methylcellulose solvent): 104 mg/kg | 6 Hz N/F ([6]; 300 mg/kg, 0.25 h, methylcellulose): 1/8 | 6 Hz N/F ([6]; 300 mg/kg, 0.5 h, methylcellulose): 0/8 | 6 Hz N/F ([6]; 300 mg/kg, 1 h, methylcellulose): 0/8 | 6 Hz N/F ([6]; 300 mg/kg, 2 h, methylcellulose): 0/8 | 6 Hz N/F ([6]; 300 mg/kg, 4 h, methylcellulose): 0/8 | 6 Hz N/F ([6]; 300 mg/kg, 6 h, methylcellulose): 0/8 | 6 Hz N/F ([6]; 300 mg/kg, 24 h, methylcellulose): 0/8 | 6 Hz N/F ([6]; 500 mg/kg, 0.25 h, methylcellulose): 1/8 | 6 Hz N/F ([6]; 500 mg/kg, 0.5 h, methylcellulose): 0/8 | 6 Hz N/F ([6]; 500 mg/kg, 1 h, methylcellulose): 0/8 | 6 Hz N/F ([6]; 500 mg/kg, 2 h, methylcellulose): 0/8 | 6 Hz N/F ([6]; 500 mg/kg, 4 h, methylcellulose): 0/8 | 6 Hz N/F ([6]; 500 mg/kg, 6 h, methylcellulose): 0/8 | 6 Hz N/F ([6]; 500 mg/kg, 24 h, methylcellulose): 2/8 | TD50 at 2 h ([7]; CF1, mouse, TD50, Example 12, 1:1:18 ethanol:polyethoxylated castor oil:PBS solvent): 262 mg/kg | TD50 at 0.5 hours ([7]; CF1, mouse, TD50, Example 12, methylcellulose solvent, 0.5 hours post administration): > 500 mg/kg | TD50 at 2 h ([7]; mouse, TD50, Example 13, 1:1:18 ethanol:polyethoxlated castor oil:PBS solvent): 267 mg/kg | TD50 at 2 h ([7]; mouse, TD50, Example 13, methylcellulose solvent): > 500 mg/kg
